We go through 75 molecules from patent US20120165304A1, “6,7,8,9-Tetrahydro-5H-1,4,7,10a-tetraaza-cyclohept[f]indene derivatives, pharmaceutical compositions containing these compounds, their use and processes for preparing them” (BOEHRINGER INGELHEIM INTERNATIONAL GMBH, priority 2008, published 2012).

Sequence of human 5-HT2C receptor (P28335 33-458 I156V/N158S/I160V limits assumed): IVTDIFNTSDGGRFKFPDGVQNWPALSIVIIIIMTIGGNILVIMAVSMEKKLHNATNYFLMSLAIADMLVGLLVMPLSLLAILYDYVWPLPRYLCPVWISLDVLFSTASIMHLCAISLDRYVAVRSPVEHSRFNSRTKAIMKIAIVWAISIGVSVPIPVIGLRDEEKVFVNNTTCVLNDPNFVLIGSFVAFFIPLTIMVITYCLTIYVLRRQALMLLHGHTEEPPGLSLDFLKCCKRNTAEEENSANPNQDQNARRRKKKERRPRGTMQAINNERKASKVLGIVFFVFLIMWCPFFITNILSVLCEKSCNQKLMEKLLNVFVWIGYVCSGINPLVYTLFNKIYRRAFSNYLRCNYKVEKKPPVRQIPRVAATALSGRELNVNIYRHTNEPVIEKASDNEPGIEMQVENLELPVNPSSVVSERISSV

This assay has as its target human 5-HT2C receptor (Homo sapiens, UniProt P28335, I156V/I160V/N158S). Nature of the assay: cell-based.
As for `O=C(C1CN(c2c3c(nc4ccnn24)CCNCC3)C1)N1CCC2(CC1)Oc1ccccc1O2` [Example 31.186], the half-maximal effective concentration (EC50) (usually the midpoint of the concentration-response curve) turned out to be 0.068 µM.

`CCC#CCNC(=O)C1CN(c2c3c(nc4ccnn24)CCNCC3)C1` [Example 37.52]: the response was half-maximal at 0.061 µM (EC50).

As for `O=C(C1CN(c2c3c(nc4ccnn24)CCNCC3)C1)N1CCc2ccc(Br)cc2C1` [Example 31.209], the response was half-maximal at 0.095 µM (EC50).

`CN(Cc1ccc(Cl)cc1)C(=O)C1CN(c2c3c(nc4c(Br)cnn24)CCNCC3)C1` [Example 31.141] registered an EC50 of 0.087 µM.

In turn, `Cc1ccc2c(c1)CCN2C(=O)C1CN(c2c3c(nc4ccnn24)CCNCC3)C1` [Example 31.156] returned an EC50 of 0.135 µM.

Regarding `CC(C)OCCNC(=O)C1CN(c2c3c(nc4ccnn24)CCNCC3)C1` [Example 37.96], the response was half-maximal at 0.111 µM (EC50).

In the case of `O=C(C1CN(c2c3c(nc4ccnn24)CCNCC3)C1)N1CCC(CCc2ccc(F)cc2)CC1` [Example 31.105], the midpoint of the response, the EC50, lay at 0.111 µM.

On to `FC(F)(F)Oc1ccc(OC2CN(c3c4c(nc5ccnn35)CCNCC4)C2)cc1` [Example 35.32], for which the response was half-maximal at 0.411 µM (EC50).

In turn, `CC1CCN(C(=O)C2CN(c3c4c(nc5ccnn35)CCN(C)CC4)C2)C1` (stereo not drawn) [Example 36.42] gave an EC50 of 0.741 µM. This EC50 is about 1.8-fold higher than that of the molecule before.

`O=C(NCCc1ccccc1)C1CN(c2c3c(nc4ccnn24)CCNCC3)C1` [Example 31.21] returned an EC50 of 0.727 µM.

`Cc1cnn2c(N3CC(C(=O)N4c5ccccc5CC4C)C3)c3c(nc12)CCNCC3` (stereo not drawn) [Example 31.241] gave an EC50 of 0.084 µM.

Take `CN(Cc1ccccn1)C(=O)C1CN(c2c3c(nc4ccnn24)CCNCC3)C1` [Example 31.29]: it took 0.087 µM to reach a half-maximal effect (EC50).

Regarding `COc1ccc2c(c1)CCN2C(=O)CC1CN(c2c3c(nc4ccnn24)CCNCC3)C1` [Example 33.3], the midpoint of the response, the EC50, lay at 0.012 µM.

`CN(Cc1ccc(Cl)cc1)C(=O)C1CN(c2c3c(nc4ccnn24)CCNCC3)C1` [Example 31.40] displayed an EC50 of 0.04 µM. This EC50 lies about 3.3-fold higher than the previous one.

The molecule `Cc1cccc(OC2CN(c3c4c(nc5ccnn35)CCNCC4)C2)c1` [Example 35.51] came in with an EC50 of 0.126 µM. This EC50 lies about 3.1-fold higher than the previous one.

Molecule `Cc1cccc2[nH]c(C3CN(c4c5c(nc6ccnn46)CCNCC5)C3)nc12` [Example 34.5] registered an EC50 of 0.246 µM.

`CN(CC1CCCCC1)C(=O)C1CN(c2c3c(nc4ccnn24)CCNCC3)C1` [Example 31.100] displayed an EC50 of 0.158 µM.

`O=C(C1CN(c2c3c(nc4ccnn24)CCNCC3)C1)N1CCC(c2cc(Cl)cc(Cl)c2)CC1` [Example 31.214] showed an EC50 of 0.471 µM.

`O=C(C1CN(c2c3c(nc4ccnn24)CCNCC3)C1)N1CCC(c2ccncc2)CC1` [Example 31.182] yielded an EC50 of 0.009 µM.

`CC1(C(=O)N2CCC3(CCOC3)CC2)CN(c2c3c(nc4ccnn24)CCNCC3)C1` [Example 32.4] yielded a concentration for a half-maximal effect (EC50) of 4.27 µM.

As for `CC(C)CC(C)NC(=O)C1CN(c2c3c(nc4ccnn24)CCNCC3)C1` (stereo not drawn) [Example 37.99], a half-maximal effect (EC50) was put at 0.092 µM.

On to `CN1CCc2nc3ccnn3c(N3CC(C(=O)NC4CCC(C)(C)CC4)C3)c2CC1` [Example 36.39], for which the concentration for a half-maximal effect (EC50) came to 0.911 µM.

For `CC(C)(C)CNC(=O)C1CN(c2c3c(nc4ccnn24)CCNCC3)C1` [Example 37.76], the EC50 worked out at 0.065 µM.

Molecule `O=C(C1CN(c2c3c(nc4ccnn24)CCNCC3)C1)N1CCc2ccc(C(F)(F)F)cc2C1` [Example 31.107] yielded a concentration for a half-maximal effect (EC50) of 0.052 µM. The EC50 values of the last two molecules are within 1.5-fold of each other.

In the case of `COc1ccc2ccc(OC3CN(c4c5c(nc6ccnn46)CCNCC5)C3)cc2c1` [Example 35.11], the EC50 stood at 0.926 µM. This EC50 lies about 18-fold higher than the previous one.

`C#CC(C)(C)NC(=O)C1CN(c2c3c(nc4ccnn24)CCNCC3)C1` [Example 37.91]: the midpoint of the response, the EC50, lay at 0.301 µM.

With `CN(Cc1ccc(C#N)cc1)C(=O)C1CN(c2c3c(nc4c(Br)cnn24)CCNCC3)C1` [Example 31.139], a half-maximal effect (EC50) was put at 0.016 µM.

`CCOc1ccc(OC2CN(c3c4c(nc5ccnn35)CCNCC4)C2)cc1` [Example 35.53] yielded an EC50 of 0.324 µM. Against the preceding molecule, the EC50 is about 20-fold higher.

The molecule `CCc1cnn2c(N3CC(Oc4ccc(OC)cc4)C3)c3c(nc12)CCNCC3` [Example 25.1] came in with a 50% effective concentration (EC50) of 0.077 µM.

With `CCN1CCCC1CNC(=O)C1CN(c2c3c(nc4ccnn24)CCN(C)CC3)C1` (stereo not drawn) [Example 36.4], the half-maximal effective concentration (EC50) came out at 0.252 µM.

For the molecule `O=C(C1CN(c2c3c(nc4ccnn24)CCNCC3)C1)N1CCC(F)(F)CC1` [Example 31.203], the midpoint of the response, the EC50, lay at 0.067 µM.

Molecule `c1cc2c(c(OC3CN(c4c5c(nc6ccnn46)CCNCC5)C3)c1)CCCC2` [Example 35.25] registered an EC50 of 0.666 µM.

`c1ccc(CCn2c(C3CN(c4c5c(nc6ccnn46)CCNCC5)C3)nc3ccccc32)cc1` [Example 34.36]: the EC50 was 0.353 µM.

`OCC1CN(c2c3c(nc4ccnn24)CCNCC3)C1` [Example 1.5] returned an EC50 of 0.193 µM.

Consider `O=C(NCCCC(F)(F)F)C1CN(c2c3c(nc4ccnn24)CCNCC3)C1` [Example 37.66], for which the EC50 was 0.042 µM.

`O=C(C1CN(c2c3c(nc4ccnn24)CCNCC3)C1)N1CCC2(CC2)C1` [Example 31.14] yielded an EC50 of 0.087 µM.

In turn, `O=C(C1CN(c2c3c(nc4ccnn24)CCNCC3)C1)N1CCCC(F)C1` (stereo not drawn) [Example 31.193] showed a 50% effective concentration (EC50) of 0.064 µM.

Take `O=C(C1CN(c2c3c(nc4ccnn24)CCNCC3)C1)N1CCCC(c2cccc(F)c2)C1` (stereo not drawn) [Example 31.215]: a half-maximal effect (EC50) was put at 0.155 µM.

For the molecule `C#CCN1CCN(C(=O)C2CN(c3c4c(nc5ccnn35)CCNCC4)C2)CC1` [Example 37.39], the EC50 came out at 0.007 µM.

`COc1ccccc1OCC1CN(c2c3c(nc4ccnn24)CCNCC3)C1` [Example 15.21] registered an EC50 of 0.029 µM.

Molecule `Cc1ccc(OC2CN(c3c4c(nc5ccnn35)CCNCC4)C2)cn1` [Example 35.52] had a concentration for a half-maximal effect (EC50) of 0.147 µM. Compared with the last molecule, the EC50 is about 5.1-fold higher.

On to `CC1(C(=O)N2CCC(C(F)(F)F)CC2)CN(c2c3c(nc4ccnn24)CCNCC3)C1` [Example 32.2], for which a half-maximal effect (EC50) was put at 8.29 µM.

Molecule `CC(=O)NC1CCN(C(=O)C2CN(c3c4c(nc5ccnn35)CCNCC4)C2)CC1` [Example 37.29] yielded a 50% effective concentration (EC50) of 0.01 µM.

Regarding `O=C(C1CN(c2c3c(nc4ccnn24)CCNCC3)C1)N1CCC(c2ccc(Cl)cc2)CC1` [Example 31.115], the EC50 came to 0.055 µM. This EC50 lies about 5.5-fold higher than the previous one.

Turning to `Cc1cnn2c(N3CCCCC3)c3c(nc12)CCNCC3` [Example 27.1], the response was half-maximal at 0.037 µM (EC50).

Take `O=C(NC1CCOC1)C1CN(c2c3c(nc4ccnn24)CCNCC3)C1` (stereo not drawn) [Example 37.67]: the EC50 was 0.067 µM. Compared with the last molecule, the EC50 is about 1.8-fold higher.

In turn, `CCCCN1CCN(C(=O)C2CN(c3c4c(nc5ccnn35)CCNCC4)C2)CC1=O` [Example 37.51] yielded an EC50 of 0.011 µM.

As for `Cc1cnn2c(N3CC(C(=O)N4CCC5(CCCC5)C4)C3)c3c(nc12)CCNCC3` [Example 31.248], it took 0.025 µM to reach a half-maximal effect (EC50).

Turning to `O=C(C1CN(c2c3c(nc4ccnn24)CCNCC3)C1)N1CCc2ccccc21` [Example 31.143], the midpoint of the response, the EC50, lay at 0.049 µM. This EC50 lies about 2-fold higher than the previous one.

`Cc1cccc2c1N(C(=O)C1CN(c3c4c(nc5ccnn35)CCNCC4)C1)CC2` [Example 31.174] registered an EC50 of 0.116 µM.

Molecule `CN1CCc2nc3ccnn3c(N3CC(C(=O)NCCCN4CC[C@@H](F)C4)C3)c2CC1` [Example 36.32] gave an EC50 of 0.288 µM.

In turn, `COc1cccc(COC2CN(c3c4c(nc5ccnn35)CCNCC4)C2)c1` [Example 20.13] had a concentration for a half-maximal effect (EC50) of 0.347 µM. The EC50 values of the last two molecules are within 1.5-fold of each other.

Turning to `O=C(NCC1CCCCCC1)C1CN(c2c3c(nc4ccnn24)CCNCC3)C1` [Example 37.68], the response was half-maximal at 0.039 µM (EC50).

The molecule `Cc1cnn2c(N3CC(C(=O)N4CCc5c(cccc5C(F)(F)F)C4)C3)c3c(nc12)CCNCC3` [Example 31.239] yielded a concentration giving a half-maximal response (EC50) of 0.08 µM.

Molecule `COc1ccc(N(C)C(=O)C2CN(c3c4c(nc5ccnn35)CCNCC4)C2)cc1` [Example 31.31] gave a 50% effective concentration (EC50) of 2.15 µM.

For the molecule `O=C(C1CN(c2c3c(nc4ccnn24)CCNCC3)C1)N1CCCCCC1` [Example 31.142], the EC50 was 0.186 µM.

As for `O=C(C1CN(c2c3c(nc4ccnn24)CCNCC3)C1)N1CCc2c1ccc(F)c2F` [Example 31.155], a half-maximal effect (EC50) was put at 0.052 µM.

As for `c1ccc(CC2CN(c3c4c(nc5ccnn35)CCNCC4)C2)cc1` [Example 1.15], the EC50 is 0.01 µM.

`Clc1ccccc1OC1CN(c2c3c(nc4ccnn24)CCNCC3)C1` [Example 35.3] registered a concentration for a half-maximal effect (EC50) of 0.098 µM.

The molecule `O=C(C1CN(c2c3c(nc4ccnn24)CCNCC3)C1)N1CCC(C(F)(F)F)CC1` [Example 31.83] showed a half-maximal effective concentration (EC50) of 0.008 µM.

In the case of `Fc1c(Cl)cccc1OCC1CN(c2c3c(nc4ccnn24)CCNCC3)C1` [Example 15.25], a half-maximal response (EC50) required 0.212 µM.

In turn, `CN1C(C)(C)CC(NC(=O)C2CN(c3c4c(nc5ccnn35)CCNCC4)C2)CC1(C)C` [Example 37.106] yielded an EC50 of 0.009 µM.

Take `CN1CC(NC(=O)C2CN(c3c4c(nc5ccnn35)CCNCC4)C2)C1` [Example 37.64]: the EC50 worked out at 0.004 µM. This EC50 is about 2.2-fold lower than that of the molecule before.

For the molecule `CC(C)N1CCN(C(=O)C2CN(c3c4c(nc5ccnn35)CCNCC4)C2)CC1` [Example 37.3], the EC50 is 0.003 µM.

`CC1CN(C(=O)C2CN(c3c4c(nc5ccnn35)CCN(C)CC4)C2)CCO1` (stereo not drawn) [Example 36.11]: the response was half-maximal at 0.138 µM (EC50).

`c1csc(COC2CN(c3c4c(nc5ccnn35)CCNCC4)C2)n1` [Example 20.14] showed a concentration giving a half-maximal response (EC50) of 0.023 µM.

`O=C(C1CN(c2c3c(nc4ccnn24)CCNCC3)C1)N1CCC(c2ccc(Br)cc2)CC1` [Example 31.112] gave an EC50 of 0.131 µM.

In turn, `O=C(C1CN(c2c3c(nc4ccnn24)CCNCC3)C1)N1CCC2(CCOC2)CC1` [Example 31.57] yielded an EC50 of 0.037 µM.

For the molecule `COc1ccc(C2(CNC(=O)C3CN(c4c5c(nc6ccnn46)CCNCC5)C3)CCCCC2)cc1` [Example 31.185], a half-maximal response (EC50) required 1.47 µM.

As for `O=C(N[C@H]1C[C@@H]1c1ccccc1)C1CN(c2c3c(nc4ccnn24)CCNCC3)C1` [Example 31.28], the EC50 came out at 0.314 µM.

As for `CC1CC(C)CN(C(=O)C2CN(c3c4c(nc5ccnn35)CCNCC4)C2)C1` (stereo not drawn) [Example 31.22], the EC50 worked out at 0.085 µM.

In turn, `O=C(C1CN(c2c3c(nc4ccnn24)CCNCC3)C1)N1CCC(F)CC1` [Example 31.206] returned an EC50 of 0.146 µM.

Turning to `C#CC(C)NC(=O)C1CN(c2c3c(nc4ccnn24)CCNCC3)C1` (stereo not drawn) [Example 37.109], the EC50 came out at 0.079 µM.

Turning to `O=C(O)C1CN(c2c3c(nc4ccnn24)CCNCC3)C1` [Example 1.14], the EC50 came to 1.34 µM.

In turn, `COc1ccccc1C1CCN(c2c3c(nc4ccnn24)CCNCC3)C1` (stereo not drawn) [Example 1.21] displayed an EC50 of 1.15 µM.
